These results are taken from patent US20160278376A1 (priority 2013, published 2016).

SMILES strings stand for the structures. ≈ marks a conversion by molar mass, not a printed value. Read-outs that look alike come from different tables or passages of the source.

Data set [1] has as its system E. coli Stratagene strain “Solopack”. The data set is described as follows: Paper disc inhibition assay on E. coli lawn. It counts as cell-based. The conditions noted are these: 20 μl drops without dilution (100% strength) on 6 mm discs; 24 hrs. The text has this:
FIG. 1. Effect of Carvacrol, Cinnamaldehyde and Geraniol against E. coli cells. Twenty microliter drops of three chemicals (at 100% strength) were placed on paper assay discs on top of E. coli lawn. Control disc included a solution of 70% ethanol without any added essential oil. Dotted line circles indicate zone of inhibition. Photo taken at 24 hrs after plating.
The essential oils cinnamadehyde (Aldrich, W228605; ≧98% purity), carvacrol (Aldrich, W224502; ≧98% purity) and geraniol (Aldrich, 163333; 98% purity) were purchased Sigma-Aldrich (St. Louis, Mo.). A single colony of E. coli Stratagene strain “Solopack” was inoculated in 5 ml of Luria Broth (LB) liquid medium with shaking at 37° C. overnight. Two hundred μl of the E. coli overnight cultures were placed on an LB agar plate, and spread evenly with glass beads. The bacterial culture was allowed to absorb into the LB medium. Within 30 min after absorption, 20 μl drops of the three essential oils (cinnamaldehyde, carvacrol or geraniol) were separately placed without dilution on 6 mm discs (Whatman, Cat No. 2017-006; GE healthcare Life Science) and the treated disks were placed on top of the plates with E. coli. The plates were then incubated for 24 hrs. Photos were taken at 24 hrs after plating (see FIG. 1). Experiments were repeated, with the same results.

Data set [2] deals with L. crescens strain BT-1 (Lcr). It counts as cell-based, Liberibacter crescens. The conditions noted are these: 5 days.
For data set [3], the system named is Swingle rootstocks and sweet orange. Briefly: Phytotoxicity of foliar spray / leaf painting on citrus. In kind it is in vivo. The text has this: To test the phytoxicity of cinnamaldehyde or carvacrol in 70% ethanol, and 70% ethanol alone on citrus plants, we applied 1% (w/v) and 10% (w/v) cinnamaldehyde or carvacrol (each dissolved in 70% ethanol) on Swingle rootstocks (˜6 inches to 1 foot tall) by spraying to the point of run-off of the spray and also sweet orange (˜3 foot tall) by painting one or both sides of a portion of the leaf surface. We also applied 70% ethanol as control in these two methods.

The test system of another data set is Swingle rootstocks. The data set is described as follows: Phytotoxicity of soil drench on citrus. It counts as in vivo. The text has this:
To further test the phytoxicity of cinnamaldehyde or carvacrol in 70% ethanol, and 70% ethanol alone on citrus plants, we applied 1% and 10% cinnamaldehyde or carvacrol (each dissolved in 70% ethanol) on Swingle rootstocks (˜6 inches to 1 foot tall) by adding sufficient liquid to soil of potted citrus to the point of run-off of the drench. We also applied 70% ethanol as control in these two methods.

The subject of a further data set is Lcr. Briefly: microbe, parasite or virus in culture. It counts as cell-based. The conditions noted are these: Liberibacter crescens, read-out: Minimum Inhibitory Concentration (MIC).
Data set [4] deals with Las. In kind it is in vivo. The conditions noted are these: 1% (w/v) in 70% ethanol, foliar spray to run off; 1-2 weeks later, remained positive for at least several months; positive = Ct ≤ 35.
The subject of data set [5] is Las. In kind it is in vivo.
The test system of data set [6] is Las. It counts as in vivo. The conditions noted are these: 1.5% (w/v) in 100% DMSO.
Data set [7] has as its system Hamlin sweet orange trees grafted onto Swingle rootstock. To be noted: in vivo.
Setting [8] is: 20 μl at 2 mg/ml in 70% ethanol on 6 mm discs.
[9] abbreviates: 1% (w/v) in 70% ethanol, sprayed to run-off on Swingle rootstocks, painted on sweet orange leaves, carvacrol effect observable by 24 hours.
The mark [10] stands for this setting: 1% in 70% ethanol (carvacrol: 8 mg/ml (1%), observable by 60 hrs), potted Swingle rootstocks.
Setting [11] is: 10% w/v in 70% ethanol, chlorosis and leaf curling, but not defoliation.

`Cc1ccc(C(C)C)cc1O` [carvacrol, reference compound]: the “inhibition of the growth of E. coli (zone of inhibition)” value (“inhibition of the growth of E. coli” below) in data set [1] was “more inhibitory than cinnamaldehyde”. Besides, the “inhibition of the growth of Lcr (zone of inhibition)” value (“inhibition of the growth of Lcr” for short) in data set [2] (setting [8]) is listed as “slight inhibition”. In addition, the “phytotoxicity to citrus, foliar application” value in data set [3] (setting [9]) is listed as “highly phytotoxic”. Further, in the data set on Swingle rootstocks (setting [10]), the “phytotoxicity to citrus, soil drench” value is on record as “highly phytotoxic”.
For the molecule `CC(C)=CCC/C(C)=C/CO` [geraniol, reference compound], in data set [1], the “inhibition of the growth of E. coli” value was “inhibitory”. Moreover, in [2] (20 μl of two-fold dilutions 2 mg/ml to 0.125 mg/ml in 70% ethanol on 6 mm discs), the “inhibition of the growth of Lcr” value is given as “not inhibitory”.
In the case of `O=C/C=C/c1ccccc1` [cinnamaldehyde], in data set [1], the “inhibition of the growth of E. coli” value was “more inhibitory than geraniol”. For the same molecule, the “inhibition of the growth of Lcr” value in data set [2] (setting [8]) is on record as “strong inhibition”. Besides, in data set [2] (two-fold serial dilutions in 70% ethanol on 6 mm discs), the “level down to which inhibitory to Lcr in the disc tests” value turned out to be 1 mg/mL. Also, in the data set with Lcr, the MIC was 5 µg/mL (≈ 37.8 µM). Further, the figures for the “phytotoxicity to citrus, foliar application” value in [3] (setting [9]) and in [3] (setting [11]) were “not at all phytotoxic” and “moderately phytotoxic”, respectively. The “phytotoxicity to citrus, soil drench” value in the data set with Swingle rootstocks (setting [10]) is “not at all phytotoxic”; in the data set with Swingle rootstocks (setting [11]), “moderately phytotoxic”. Also, the “qPCR test for Las after treatment” value in the data set with Las [4] is given as “qPCR positive”. The “PCR test for Las” value in the data set with Las [5] (0.3% in 50% DMSO, foliar spray to run off) is reported as “remained infected”. The “PCR test for Las in new shoots” value is listed as “completely Las negative” in the data set with Las [5] (1.5% in 50% DMSO, foliar spray to run off, first tests about 3 weeks after defoliation) and “completely negative” in the data set on Las [6] (2 x 20 ml trunk injection, first tests about 3 weeks after defoliation). Moreover, the “outcome of weekly qPCR tests for Las over nine months” value in the data set on Las [5] (1.5% in 50% DMSO, foliar spray, no detectable Liberibacter infection and no citrus greening symptoms) is recorded as “cured”. Also, in the data set with Las [6] (trunk injection, thus cured), the “weekly PCR tests for Las over 9 months” value was “remained completely PCR negative”. Also, the “effect on foliage of treated trees” value in data set [7] is given as “completely defoliated”.
